Source: patent publication US11753403B2, “EIF4E inhibitors and uses thereof” (PIC Therapeutics, Inc., priority 2020, dated 2023)

Target: Human eIF4E (aa 28-217) / biotin labeled 4G2 peptide (Homo sapiens (Human), UniProt P06730)
Assay: Human eIF4E/4G2 binding assay (TR-FRET)
Settings: Human eIF4E/4G2 TR-FRET binding assay; head says IC50, legend says EC50
In short: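 Refolded His-tagged human eIF4E (aa 28-217), 82.5 nM working stock, preincubated 4 h at RT with compounds (10-point 2-fold series) in NaPi pH 6.5 buffer with DTT and gamma globulin. Biotin-4G2 peptide then added for 20 min, followed by Eu-streptavidin/APC-anti-His for 20 min; TR-FRET 665/615 nm ratio normalized, IC50 fitted.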

Chain of Human eIF4E (aa 28-217) / biotin labeled 4G2 peptide (P06730 28-217): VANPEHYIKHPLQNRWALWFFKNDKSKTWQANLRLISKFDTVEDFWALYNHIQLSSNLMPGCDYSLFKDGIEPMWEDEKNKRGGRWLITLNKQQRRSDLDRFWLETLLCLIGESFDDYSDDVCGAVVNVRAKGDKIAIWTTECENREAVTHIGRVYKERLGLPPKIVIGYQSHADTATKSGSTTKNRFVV

Row | SMILES | IC50 [nM]
1 | CC(C)Cc1sc(Nc2cc(C(=O)O)cc(C(F)(F)F)c2)nc1-c1ccc(Cl)c(Cl)c1 [I-213] | ≤ 1000
2 | Cc1cc(Nc2nc(-c3ccc(Cl)c(Cl)c3)c(CC(C)C)s2)cc(C(=O)O)c1 [I-214] | 1000 to 10000
3 | CC(C)Cc1sc(Nc2cc(C(=O)O)cc(-c3ccccc3)c2)nc1-c1ccc(Cl)c(Cl)c1 [I-215, 5-(4-(3,4-dichlorophenyl)-5-isobutylthiazol-2-ylamino)biphenyl-3-carboxylic acid] | ≤ 1000
4 | CC(C)Cc1sc(Nc2ccc(-c3ccccc3)c(C(=O)O)c2)nc1-c1ccc(Cl)c(Cl)c1 [I-216] | ≤ 1000
5 | CC(C)Cc1sc(Nc2cc(NC(=O)c3ccccc3)cc(C(=O)O)c2)nc1-c1ccc(Cl)c(Cl)c1 [I-217] | ≤ 1000
6 | CC(C)Cc1sc(Nc2cccc(C(=O)NCCN)c2)nc1-c1ccc(Cl)c(Cl)c1 [I-218, N-(2-aminoethyl)-3-(4-(3,4-dichlorophenyl)-5-isobutylthiazol-2-ylamino)benzamide] | > 10000
7 | CC(C)Cc1sc(Nc2cccc(C(=O)O)n2)nc1-c1ccc(Cl)c(Cl)c1 [I-219] | 1000 to 10000
8 | CC(C)Cc1sc(Nc2ccnc(C(=O)O)c2)nc1-c1ccc(Cl)c(Cl)c1 [I-220] | 1000 to 10000
9 | CC(C)Cc1sc(Nc2cncc(C(=O)O)c2)nc1-c1ccc(Cl)c(Cl)c1 [I-221, 5-(4-(3,4-dichlorophenyl)-5-isobutylthiazol-2-ylamino)nicotinic acid] | 1000 to 10000
10 | CC(C)Cc1sc(Nc2cc(C(=O)O)ccn2)nc1-c1ccc(Cl)c(Cl)c1 [I-222] | 1000 to 10000
11 | O=C(O)c1cccc(-c2nc(Cc3ccc(Cl)c(Cl)c3)cs2)c1 [I-223, 3-(4-(3,4-dichlorobenzyl)thiazol-2-yl)benzoic acid] | 1000 to 10000
12 | CC(C)Cc1sc(-c2ccc(Br)c(C(=O)O)c2)nc1-c1ccc(Cl)c(Cl)c1 [I-224, 2-bromo-5-(4-(3,4-dichlorophenyl)-5-isobutylthiazol-2-yl)benzoic acid] | 1000 to 10000
13 | CC(C)Cc1sc(-c2ccc(-c3ccccc3)c(C(=O)O)c2)nc1-c1ccc(Cl)c(Cl)c1 [I-225] | ≤ 1000
14 | CC(C)Cc1sc(-c2ccc(-c3cccnc3)c(C(=O)O)c2)nc1-c1ccc(Cl)c(Cl)c1 [I-226] | ≤ 1000
15 | CC(C)Cc1sc(-c2ccc(C(F)(F)F)c(C(=O)O)c2)nc1-c1ccc(Cl)c(Cl)c1 [I-227] | 1000 to 10000
16 | CC(C)Cc1sc(-c2cccc(C(=O)O)n2)nc1-c1ccc(Cl)c(Cl)c1 [I-228, 6-(4-(3,4-dichlorophenyl)-5-isobutylthiazol-2-yl)picolinic acid] | 1000 to 10000
17 | CC(C)Cc1sc(-c2ccc(C(=O)O)s2)nc1-c1ccc(Cl)c(Cl)c1 [I-229] | ≤ 1000
18 | CC(C)Cc1sc(N(CCC(=N)N)Cc2ccccc2)nc1-c1ccc(Cl)c(Cl)c1 [I-230, 3-(benzyl(4-(3,4-dichlorophenyl)-5-isobutylthiazol-2-yl)amino)propanimidamide] | > 10000
19 | CC(C)Cc1sc(N(CC(=N)N)Cc2ccccc2)nc1-c1ccc(Cl)c(Cl)c1 [I-231, 2-(benzyl(4-(3,4-dichlorophenyl)-5-isobutylthiazol-2-yl)amino)acetimidamide] | > 10000
20 | CC(C)Cc1sc(N(CCNC(=N)N)Cc2ccccc2)nc1-c1ccc(Cl)c(Cl)c1 [I-232, 2-(2-(benzyl(4-(3,4-dichlorophenyl)-5-isobutylthiazol-2-yl)amino)ethyl)guanidine] | 1000 to 10000
21 | CC(C)Cc1sc(Nc2ncccc2C(=O)O)nc1-c1ccc(Cl)c(Cl)c1 [I-233] | ≤ 1000

Row | SMILES | IC50 [nM]
22 | CC(C)Cc1sc(Nc2cccnc2C(=O)O)nc1-c1ccc(Cl)c(Cl)c1 [I-234, 3-(4-(3,4-dichlorophenyl)-5-isobutylthiazol-2-ylamino)picolinic acid] | 1000 to 10000
23 | CC(C)Cc1sc(Nc2ccc(-c3ccccc3)cc2C(=O)O)nc1-c1ccc(Cl)c(Cl)c1 [I-235] | ≤ 1000
24 | CC(C)Cc1sc(Nc2cccc(C(F)(F)F)c2C(=O)O)nc1-c1ccc(Cl)c(Cl)c1 [I-236] | ≤ 1000
25 | CC(C)Cc1sc(-c2cc(C(=O)O)ccn2)nc1-c1ccc(Cl)c(Cl)c1 [I-238] | 1000 to 10000
26 | CC(C)Cc1sc(Nc2nnccc2C(=O)O)nc1-c1ccc(Cl)c(Cl)c1 [I-239] | 1000 to 10000
27 | CC(C)Cc1sc(-c2cc(C(=O)O)c(F)cn2)nc1-c1ccc(Cl)c(Cl)c1 [I-240] | 1000 to 10000
28 | CC(C)Cc1sc(Nc2nccc(-c3ccccc3)c2C(=O)O)nc1-c1ccc(Cl)c(Cl)c1 [I-241] | ≤ 1000
29 | CC(C)Cc1sc(Nc2nccc(Cl)c2C(=O)O)nc1-c1ccc(Cl)c(Cl)c1 [I-242] | ≤ 1000
30 | COc1ccnc(Nc2nc(-c3ccc(Cl)c(Cl)c3)c(CC(C)C)s2)c1C(=O)O [I-243] | ≤ 1000
31 | CC(C)Cc1sc(N2CCN(C(=O)OCc3ccccc3)C(C(=O)O)C2)nc1-c1ccc(Cl)c(Cl)c1 (stereo not shown) [I-244, 1-(benzyloxycarbonyl)-4-(4-(3,4-dichlorophenyl)-5-isobutylthiazol-2-yl)piperazine-2-carboxylic acid] | ≤ 1000
32 | CCOC(=O)N1CCN(c2nc(-c3ccc(Cl)c(Cl)c3)c(CC(C)C)s2)CC1C(=O)O (stereo not shown) [I-245, 4-(4-(3,4-dichlorophenyl)-5-isobutylthiazol-2-yl)-1-(ethoxycarbonyl)piperazine-2-carboxylic acid] | 1000 to 10000
33 | CC(C)Cc1sc(N2CCN(C(=O)c3ccccc3)C(C(=O)O)C2)nc1-c1ccc(Cl)c(Cl)c1 (stereo not shown) [I-246, 1-benzoyl-4-(4-(3,4-dichlorophenyl)-5-isobutylthiazol-2-yl)piperazine-2-carboxylic acid] | 1000 to 10000
34 | CC(C)Cc1sc(N2CCN(C(=O)c3cccs3)C(C(=O)O)C2)nc1-c1ccc(Cl)c(Cl)c1 (stereo not shown) [I-248] | ≤ 1000
35 | CC(C)Cc1sc(N2CCN(C(=O)c3ncccn3)C(C(=O)O)C2)nc1-c1ccc(Cl)c(Cl)c1 (stereo not shown) [I-249] | 1000 to 10000
36 | CC(C)Cc1sc(N2CCN(C(=O)c3cccnc3)C(C(=O)O)C2)nc1-c1ccc(Cl)c(Cl)c1 (stereo not shown) [I-250] | 1000 to 10000
37 | CNC(=O)N1CCN(c2nc(-c3ccc(Cl)c(Cl)c3)c(CC(C)C)s2)CC1C(=O)O (stereo not shown) [I-251, 4-(4-(3,4-dichlorophenyl)-5-isobutylthiazol-2-yl)-1-(methylcarbamoyl)piperazine-2-carboxylic acid] | 1000 to 10000
38 | CC(C)Cc1sc(N2CCN(C(=O)Nc3ccccc3)C(C(=O)O)C2)nc1-c1ccc(Cl)c(Cl)c1 (stereo not shown) [I-252] | ≤ 1000
39 | CC(C)Cc1sc(N2CCN(C(=O)OC(C)C)C(C(=O)O)C2)nc1-c1ccc(Cl)c(Cl)c1 (stereo not shown) [I-253, 4-(4-(3,4-dichlorophenyl)-5-isobutylthiazol-2-yl)-1-(isopropoxycarbonyl)piperazine-2-carboxylic acid] | 1000 to 10000
40 | CC(C)Cc1sc(Nc2ccncc2C(=O)O)nc1-c1ccc(Cl)c(Cl)c1 [I-254] | 1000 to 10000
41 | CC(C)Cc1sc(Nc2cc(C(=O)O)ccc2-c2ccccc2)nc1-c1ccc(Cl)c(Cl)c1 [I-255] | 1000 to 10000
42 | CC(C)Cc1sc(Nc2ccsc2C(=O)O)nc1-c1ccc(Cl)c(Cl)c1 [I-256] | ≤ 1000

Row | SMILES | IC50 [nM]
43 | Cn1nnnc1-c1sc(Nc2ncccc2C(=O)O)nc1-c1ccc(Cl)c(Cl)c1 [I-257, 2-(4-(3,4-dichlorophenyl)-5-(1-methyl-1H-tetrazol-5-yl)thiazol-2-ylamino)nicotinic acid] | ≤ 1000
44 | CC(C)c1sc(Nc2ncccc2C(=O)O)nc1-c1ccc(Cl)c(Cl)c1 [I-258] | ≤ 1000
45 | CC(C)c1sc(Nc2ncc(-c3ccccc3)cc2C(=O)O)nc1-c1ccc(Cl)c(Cl)c1 [I-259, 2-(4-(3,4-dichlorophenyl)-5-isopropylthiazol-2-ylamino)-5-phenylnicotinic acid] | ≤ 1000
46 | CC(C)c1sc(Nc2ncc(-c3cccs3)cc2C(=O)O)nc1-c1ccc(Cl)c(Cl)c1 [I-260] | ≤ 1000
47 | CC(C)c1sc(Nc2ncccc2C(=O)O)nc1-c1ccc(Cl)c(C(F)(F)F)c1 [I-261] | ≤ 1000
48 | CC(C)c1sc(Nc2ncc(-c3ccccc3)cc2C(=O)O)nc1-c1ccc(Cl)c(C(F)(F)F)c1 [I-262, 2-(4-(4-chloro-3-(trifluoromethyl)phenyl)-5-isopropylthiazol-2-ylamino)-5-phenylnicotinic acid] | ≤ 1000
49 | CC(C)c1sc(Nc2ncc(-c3cccs3)cc2C(=O)O)nc1-c1ccc(Cl)c(C(F)(F)F)c1 [I-263] | ≤ 1000
50 | CC(C)c1sc(Nc2ncc(Cc3ccccc3)cc2C(=O)O)nc1-c1ccc(Cl)c(Cl)c1 [I-264] | ≤ 1000
51 | CC(C)c1sc(Nc2ncc(Cc3ccccc3)cc2C(=O)O)nc1-c1ccc(Cl)c(C(F)(F)F)c1 [I-265] | ≤ 1000
52 | CC(C)c1sc(Nc2ncc(-c3cccc(F)c3)cc2C(=O)O)nc1-c1ccc(Cl)c(Cl)c1 [I-266] | ≤ 1000
53 | COc1cccc(-c2cnc(Nc3nc(-c4ccc(Cl)c(Cl)c4)c(C(C)C)s3)c(C(=O)O)c2)c1 [I-267] | ≤ 1000
54 | COc1cc(-c2cnc(Nc3nc(-c4ccc(Cl)c(Cl)c4)c(C(C)C)s3)c(C(=O)O)c2)ccn1 [I-268] | ≤ 1000
55 | Cn1nnnc1-c1sc(Nc2ccsc2C(=O)O)nc1-c1ccc(Cl)c(Cl)c1 [I-269, 3-(4-(3,4-dichlorophenyl)-5-(1-methyl-1H-tetrazol-5-yl)thiazol-2-ylamino)thiophene-2-carboxylic acid] | 1000 to 10000
56 | CC(C)Cc1sc(Nc2cc(-c3ccccc3)sc2C(=O)O)nc1-c1ccc(Cl)c(Cl)c1 [I-270] | ≤ 1000
57 | CC(C)Cc1sc(Nc2cc(-c3ccc(F)cc3)sc2C(=O)O)nc1-c1ccc(Cl)c(Cl)c1 [I-271] | ≤ 1000
58 | CC(C)Cc1sc(Nc2cc(-c3cccc(Cl)c3)sc2C(=O)O)nc1-c1ccc(Cl)c(Cl)c1 [I-272] | ≤ 1000
59 | CC(C)Cc1sc(Nc2cc(-c3cccnc3)sc2C(=O)O)nc1-c1ccc(Cl)c(Cl)c1 [I-273] | ≤ 1000
60 | CC(C)Cc1sc(Nc2cc(C(C)(C)C)sc2C(=O)O)nc1-c1ccc(Cl)c(Cl)c1 [I-274] | ≤ 1000
61 | Cc1c(-c2ccccc2)sc(C(=O)O)c1Nc1nc(-c2ccc(Cl)c(Cl)c2)c(CC(C)C)s1 [I-275] | ≤ 1000
